Data set [1] is described as follows: Esterase cleavage of prodrug esters by incubation with rat liver homogenate. It counts as in vitro ADME. The note with it: liver 9000xg supernatant, rat liver 9,000×g supernatant, pH 7.4, 37° C., 0.5 μmole substrate, read-out: Formation of IIa (piquindone) as % of incubated test compound I in 1 hr. As to the method:
In this test, acetone solutions of the test compounds (0.5 μmole/50 μL) were added to an incubation medium consisting of 2.7 ml 0.1M potassium hydrogenphosphate (pH 7.4) and 0.3 ml rat liver 9,000×g supernatant. The media were then incubated for 1 hour at 37° C. Controls consisted of a sample containing the complete medium and substrate which was not incubated, a sample containing only phosphate buffer and substrate, and a sample containing the complete medium but lacking substrate.
The incubation media were fractionated with a Waters C-18 SEP-PAK. Prior to sample application, the SEP-PAK was washed with 10 ml of methanol and 20 ml of water. After sample application, the SEP-Pak was washed with 10 ml of water and 3 ml of methanol. The amount of the liberated compound of formula II was measured by high pressure liquid chromatography on a 30-cm Waters μ-Bondapak C-18 column, equilibrated with 70:30:1 methanol:water:ammonium hydroxide.

In a further data set the target is T1, dopamine receptors (Rattus norvegicus, UniProt P61169).
T1 construct: rat striatal brain homogenates; from tissue; host or cells: rat striatum (brain homogenate)
T1 sequence (P61169 whole entry): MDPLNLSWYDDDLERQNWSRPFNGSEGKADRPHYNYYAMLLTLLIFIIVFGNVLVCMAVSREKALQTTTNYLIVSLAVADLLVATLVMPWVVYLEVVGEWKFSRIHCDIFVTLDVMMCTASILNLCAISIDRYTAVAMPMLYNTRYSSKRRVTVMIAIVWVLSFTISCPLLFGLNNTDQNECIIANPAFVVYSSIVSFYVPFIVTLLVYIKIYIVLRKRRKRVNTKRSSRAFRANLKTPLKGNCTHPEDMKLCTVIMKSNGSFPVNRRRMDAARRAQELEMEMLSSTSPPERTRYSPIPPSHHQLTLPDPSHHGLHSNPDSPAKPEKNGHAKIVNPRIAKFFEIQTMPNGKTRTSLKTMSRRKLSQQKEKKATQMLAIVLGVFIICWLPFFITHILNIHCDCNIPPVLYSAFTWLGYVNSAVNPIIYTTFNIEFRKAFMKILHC
Nature of the data set: 3H-spiroperidol binding test in rat striatal brain homogenates. Particulars: 0.2 nanomolar 3H-spiroperidol, 20 min incubation, no esterases, read-out: 3H-Spiroperidol binding in vitro, IC50. How it is done:
Spiroperidol binding test. In the absence of esterases which trigger the release of the compound of formula II from the compound of formula I, there is only weak activity in the 3H-spiroperiodol binding assay, an in vitro test which measures binding to dopamine receptors. In this test, rat striatal brain homogenates were incubated for 20 min. in the presence of 0.2 nanomolar ^3 H-spiroperidol and varying concentrations of test compounds. The incubations were terminated by rapid filtration through Whatman GF/B filters. followed by 2×5 mL washes with ice-cold assay buffer (50 mM tribase-HCl pH 7.7 which contains fixed concentrations of 0.1% ascorbic acid, 120 mM sodium chloride, 5 mM potassium chloride, 2 mM calcium chloride, and 1 mM magnesium chloride).

For data set [2], the system named is male SPF rats (conditioned avoidance response). In words: Pole climb avoidance test. Particulars: rat; for ED50 / ED (90-100): im, intramuscular in sesame oil; for ED50: at peak of action, read-out: Blockade of Avoidance Response (BAR), acute ED50; for ED (90-100): dose giving 90-100% block within 24 hours, read-out: Blockade of Avoidance Response (BAR), acute 100% BAR dose. It counts as in vivo. The text has this: In vivo activity. Pole Climb Avoidance Test. In the pole climb test, antipsychotics characteristically disrupt an acquired discrete conditioned avoidance behavior in doses well below those which suppress the response to unconditioned stimuli (escape). The principle of the test procedure was described by Courvoisier S. et al. (Arch. Int. Pharmacodyn 92, 305, 1954), Cook, L. et al. (Ann. N.Y. Acad. Sci. 66, 740-752, 1957) and Pfeiffer, C. et al. (Ann, N.Y. Acad. Sci. 66, 753-764, 1957).
The animals were male SPF rats (stock Fuellinsdorf Albino, outbred) weighing 200-220 g at the end of a discrete conditioned avoidance training.
The test apparatus was a sound-attenuated plexiglass chamber (41×30×30 cm). The floor was a grid consisting of 27 stainless steel rods, to which a scrambled current of 0,8 mA could be delivered by means of a stimulator. The safety area was a vertical pole (4,3 cm diameter, 24 cm long) attached to the top of the chamber. The free lower end of the pole was 6 cm above the grid floor. A buzzer was mounted within the testing enclosure.
The rats were placed in the plexiglass chamber and trained to jump to the pole during a buzzer stimulus (conditioned stimulus CS) lasting 10 sec, in order to avoid an immediately following electrical footshock (unconditioned stimulus US) of 30 sec duration delivered to the grid floor in addition to the CS. If the rat climbed to the pole during the CS or CS plus US, the stimuli (buzzer, footshock) were immediately terminated.
The pole climb response occurring during the CS period is called an avoidance response or conditioned response (CAR or CR), that occurring during exposure to CS plus US escape response of unconditioned response (UER or UR). Following one training trial (exposure to one CS and US respectively) the rats were returned to their home cage. After 15-17 trials rats were jumping during the buzzer stimulation only and were ready for drug testing.
A group of 10 trained rats was used per dose (graded doses, geometric progression: factor 3.16). The test compounds were administered intramuscularly in a sesame oil solution containing 25 mg of compounds per ml of solution.
Dose-effect curves of block of conditioned response (BCR) were constructed by plotting the log dose against the effect (in percent BCR) at the peak of action. From these curves the ED50 for BCR were graphically determined. The potency of a drug for suppressing CR was expressed by the ED50 for BCR. For the evaluation of the long-term effect, a drug dose eliciting a non-supra-maximal 90-100% block of avoidance response within 24 hours was followed up at 24 hour intervals.

[3] abbreviates: single i.m. 100% BAR dose in sesame oil.

Several values for one entry are separate records, joined by “and”; a condition that tells them apart may be missing. Equal entries are not always repeated.

With `CCc1c2c(n(C(=O)C(C)(C)CCOC(C)=O)c1C)C[C@H]1CCN(C)C[C@@H]1C2=O` (relative stereo) [Ia], in data set [1], the metabolised at 1 h came to 88 ± 2%. Besides, the IC50 – broadly, the point on the concentration scale where inhibition reaches its midpoint – at dopamine receptors stood at 250 nM. In addition, in data set [2], the 50% effective dose (ED50) (in general, the dose at which the effect has come halfway, by size or by number of responders) is 0.6 mg/kg and the ED (90-100) was 3 mg/kg. In addition, in data set [2] (setting [3]), the “Duration: % BAR, Day 1” value worked out at 90% and the “Duration: % BAR, Day 2” value amounted to 50%.

As to `CCCCCCCC(=O)OCCC(C)(C)C(=O)n1c(C)c(CC)c2c1C[C@H]1CCN(C)C[C@@H]1C2=O` (relative stereo) [Ib, 2,6-Dimethyl-1-[2,2-dimethyl-4-[(1-oxooctyl)oxy]-1-oxobutyl]-3-ethyl-1,4a,5,6,7,8,8a,9-octahydro-4a,8a-trans-4H-pyrrolo[2,3-g]isoquinolin-4-one], in data set [1], the metabolised at 1 h turned out to be 104 ± 3.3%. Moreover, the IC50 at dopamine receptors was 195 nM.

For the molecule `CCCCCCCCCC(=O)OCCC(C)(C)C(=O)n1c(C)c(CC)c2c1C[C@H]1CCN(C)C[C@@H]1C2=O` (relative stereo) [Ic, 2,6-Dimethyl-1-[2,2-dimethyl-4-[(1-oxodecyl)oxy]-1-oxo-butyl]-3-ethyl-1,4a,5,6,7,8,8a,9-octahydro-4a,8a-trans-4H-pyrrolo[2,3-g]isoquinolin-4-one], in data set [1], the metabolised at 1 h was 102%. Besides, the IC50 on dopamine receptors was 870 nM and 1000 nM. For the same molecule, in data set [2], the ED50 came to 3.6 mg/kg and the ED (90-100) was found to be 10 mg/kg. Besides, in data set [2] (setting [3]), the “Duration: % BAR, Day 1” value worked out at 100% and the “Duration: % BAR, Day 2” value is 100%. Moreover, the “Duration: % BAR, Day 3” value in data set [2] (single i.m. 100% BAR dose in sesame oil, Day 3) turned out to be 100%. For the same molecule, the “Duration: % BAR, Day 4” value in data set [2] (single i.m. 100% BAR dose in sesame oil, Day 4) is 90%. The “Duration: % BAR, Day 5” value in data set [2] (single i.m. 100% BAR dose in sesame oil, Day 5) was 80%. Besides, the “Duration: % BAR, Day 6-13” value in data set [2] (single i.m. 100% BAR dose in sesame oil, Days 6-13) is 50-60%.

`CCCCCCCCCCCC(=O)OCCC(C)(C)C(=O)n1c(C)c(CC)c2c1C[C@H]1CCN(C)C[C@@H]1C2=O` (relative stereo) [Id, 2,6-Dimethyl-1-[2,2-dimethyl-4-[(1-oxododecyl)oxy]-1-oxobutyl]-3-ethyl-1,4a,5,6,7,8,8a,9-octahydro-4a,8a-trans-4H-pyrrolo[2,3-g]isoquinolin-4-one]: the metabolised at 1 h in data set [1] stood at 77.2 ± 0.8%. Also, at dopamine receptors, the IC50 came out at 570 nM.

Turning to `CCCCCCCCCCCCCCCC(=O)OCCC(C)(C)C(=O)n1c(C)c(CC)c2c1C[C@H]1CCN(C)C[C@@H]1C2=O` (relative stereo) [Ie, 2,6-Dimethyl-1-[2,2-dimethyl-4-[(1-oxohexadecyl)oxy]-1-oxobutyl]-3-ethyl-1,4a,5,6,7,8,8a,9-octahydro-4a,8a-trans-4H-pyrrolo[2,3-g]isoquinolin-4-one], the metabolised at 1 h in data set [1] came out at 31 ± 1%. The IC50 at dopamine receptors amounted to 640 nM. Also, in data set [2], the ED50 was 17 mg/kg and the ED (90-100) is 30 mg/kg. In data set [2] (setting [3]), the “Duration: % BAR, Day 1” value was 100% and the “Duration: % BAR, Day 2” value was 10%.

On to `CCCCCCCCCCCCCCCCCC(=O)OCCC(C)(C)C(=O)n1c(C)c(CC)c2c1C[C@H]1CCN(C)C[C@@H]1C2=O` (relative stereo) [If, 2,6-Dimethyl-1-[2,2-dimethyl-4-[(1-oxooctadecyl)oxy]-1-oxobutyl]-3-ethyl-1,4a,5,6,7,8,8a,9-octahydro-4a,8a-trans-4H-pyrrolo[2,3-g]isoquinolin-4-one], for which the metabolised at 1 h in data set [1] came to 12.1 ± 0.4%. At dopamine receptors, the IC50 came to 1000 nM. For the same molecule, in data set [2], the ED50 came out at 16.2 mg/kg and the ED (90-100) came out at 30 mg/kg. In addition, in data set [2] (setting [3]), the “Duration: % BAR, Day 1” value is on record as 100% and the “Duration: % BAR, Day 2” value was determined as 10%.

Regarding `CCCCCCCCCCCCCCCCCCCC(=O)OCCC(C)(C)C(=O)n1c(C)c(CC)c2c1C[C@H]1CCN(C)C[C@@H]1C2=O` (relative stereo) [Ig, 2,6-Dimethyl-1-[2,2-dimethyl-4-[(1-oxoeicosanoyl)oxy]-1-oxobutyl]-3-ethyl-1,4a,5,6,7,8,8a,9-octahydro-4a,8a-trans-4H-pyrrolo[2,3-g]isoquinolin-4-one], in data set [1], the metabolised at 1 h was 11.7 ± 0.7%. The IC50 at dopamine receptors was 1000 nM. In addition, in data set [2], the ED50 is 13.8 mg/kg and the ED (90-100) amounted to 30 mg/kg. Further, in data set [2] (setting [3]), the “Duration: % BAR, Day 1” value came to 100% and the “Duration: % BAR, Day 2” value is recorded as 10%.

Values taken from US4732902A, “Pyrroloisoquinolinyl-dimethyloxoalkyl alkonoates and their use as antipsychotic agents” (Hoffmann-La Roche Inc., priority 1986, dated 1988).
